{"source": "patent US20240336610A1", "about": "“3CL PROTEASE SMALL-MOLECULE INHIBITOR FOR TREATING OR PREVENTING CORONAVIRUS INFECTION, AND USE THEREOF” (THE GLOBAL HEALTH DRUG DISCOVERY INSTITUTE, priority 2021, published 2024)", "key": {"[1]": {"biological_target": "SARS-CoV-2 main protease (3CLpro) (Severe acute respiratory syndrome coronavirus 2 (2019-nCoV) (SARS-CoV-2), UniProt P0DTD1)", "assay": "Enzyme activity test", "format": "biochemical", "conditions": "200 nM recombinant SARS-CoV-2 main protease, 15 μM fluorescent substrate, pH 7.3"}, "[2]": {"assay": "Toxicity testing in uninfected cells", "format": "cell-based", "conditions": "human, uninfected Hela-ACE cells, Cell-Titer Glo", "description": "(§1) Toxicity Testing in Uninfected Cells\n(§2) The compound was transferred to a 1536-well plate (Corning No. 9006BC), and then Hela-ACE cells were added (cell density: 600 cells/5 microliter of medium MEM with 2% FBS). After the assay plate was incubated at 37° C. in 5% CO2 for 48 hours, cell viability was tested. 2 μL of 50% Cell-Titer Glo (Promega No G7573) was diluted in water and added to a cell assay plate, and then a value on En Vision Plate Reader (Perkin Elmer) was read."}, "SARS-CoV-2": {"test_system": "SARS-CoV-2", "assay": "SARS-CoV-2/Hela-ACE test", "format": "cell-based", "conditions": "read-out: SAR-CoV-2 EC50"}, "[3]": {"assay": "Oral pharmacokinetics in rats", "format": "in vivo", "conditions": "rat, blood, male SD rats, 15 mg/kg", "description": "Test Example 2: Measurement of Oral Pharmacokinetics in Rats\nMale SD rats were orally administered with 15 mg/kg of the compound in the examples of the present disclosure, and blood samples were collected at 0.083, 0.25, 0.5, 1, 2, 4, and 8 hours respectively. After the samples were treated with anticoagulant EDTA-K2 and acetonitrile and centrifuged, a drug concentration analysis was conducted using LC/MS/MS."}, "Hela-ACE cells": {"test_system": "Hela-ACE cells", "assay": "Toxicity testing in uninfected cells", "format": "cell-based", "conditions": "48 hours, Cell-Titer Glo", "description": "as §1, §2"}, "[4]": {"conditions": "Severe acute respiratory syndrome coronavirus 2, Hela-ACE cells infected with SARS-CoV-2 (USA-WA1/2020), 48 hours"}, "[5]": {"conditions": "Severe acute respiratory syndrome coronavirus 2, 48 h"}}, "note": "Structures can show the parent of a compound that is named as a salt. Where two headings read alike, the source gives them in different places."}
{"compound": "CC(=O)N[C@H](C(=O)N1C[C@H]2[C@@H]([C@H]1C(=O)N[C@H](C#N)c1cncc3ccccc13)C2(C)C)C(C)(C)C", "note": "[GDI-036]", "values": [{"measurement": "IC50", "setting": "[1]", "value": 0.02, "unit": "µM"}, {"measurement": "CC50 at 48 h", "setting": "[2]", "value": "> 39.8", "unit": "µM"}, {"measurement": "EC50", "setting": "SARS-CoV-2; [4]", "value": 0.02, "unit": "µM"}]}
{"compound": "CC(C)(C)OC(=O)NC(C(=O)N1C[C@H]2[C@@H]([C@H]1C(=O)NC(C#N)c1cncc(Br)c1)C2(C)C)C(C)(C)C", "note": "(stereo partly drawn) [GDI-001]", "values": [{"measurement": "IC50", "setting": "[1]", "value": 0.08, "unit": "µM"}, {"measurement": "CC50 at 48 h", "setting": "[2]", "value": "> 39.8", "unit": "µM"}, {"measurement": "EC50", "setting": "SARS-CoV-2; [4]", "value": 0.462, "unit": "µM"}, {"measurement": "AUC(0-inf)", "setting": "[3]", "value": 1.83, "unit": "µg·h/mL"}, {"measurement": "AUC(0-t)", "setting": "[3]", "value": 1.81, "unit": "µg·h/mL"}, {"measurement": "Cmax", "setting": "[3]", "value": 0.63, "unit": "µg/mL"}, {"measurement": "half-life", "setting": "[3]", "value": 2.34, "unit": "h"}]}
{"compound": "CC(C)(C)[C@H](N)C(=O)N1C[C@H]2[C@@H]([C@H]1C(=O)NC(C#N)c1cncc(Br)c1)C2(C)C", "note": "(stereo partly drawn) [GDI-002, (1R,2S,5S)-3-((S)-2-amino-3,3-dimethylbutyryl)-N-((5-bromopyridin-3-yl)(cyano)methyl)-6,6-dimethyl-3-azabicyclo[3.1.0]he xane-2-carboxamide formate]", "values": [{"measurement": "IC50", "setting": "[1]", "value": 0.32, "unit": "µM"}, {"measurement": "CC50 at 48 h", "setting": "[2]", "value": "> 39.8", "unit": "µM"}, {"measurement": "EC50", "setting": "SARS-CoV-2; [5]", "value": 7.86, "unit": "µM"}]}
{"compound": "CC(=O)N[C@H](C(=O)N1C[C@H]2[C@@H]([C@H]1C(=O)NC(C#N)c1cncc(Br)c1)C2(C)C)C(C)(C)C", "note": "(stereo partly drawn) [GDI-003, (1R,2S,5S)-3-((S)-2-acetamido-3,3-dimethylbutyryl)-N-((5-bromopyridin-3-yl)(cyano)methyl)-6,6-dimethyl-3-azabicyclo[3.1.0]he xane-2-carboxamide]", "values": [{"measurement": "IC50", "setting": "[1]", "value": 0.05, "unit": "µM"}, {"measurement": "CC50 at 48 h", "setting": "[2]", "value": "> 39.8", "unit": "µM"}, {"measurement": "EC50", "setting": "SARS-CoV-2; [4]", "value": 1.25, "unit": "µM"}]}
{"compound": "CC(=O)N[C@H](C(=O)N1C[C@H]2[C@@H]([C@H]1C(=O)NC(C#N)c1cncc(C(F)(F)F)c1)C2(C)C)C(C)(C)C", "note": "(stereo partly drawn) [GDI-007, (1R,2S,5S)-3-((S)-2-acetamido-3,3-dimethylbutanol)-N-(cyano(5-(trifluoromethyl)pyridin-3-yl)methyl)-6,6-dimethyl-3-azabicyclo [3.1.0]hexane-2-carboxamide]", "values": [{"measurement": "IC50", "setting": "[1]", "value": 0.17, "unit": "µM"}, {"measurement": "CC50 at 48 h", "setting": "[2]", "value": "> 39.8", "unit": "µM"}, {"measurement": "EC50", "setting": "SARS-CoV-2; [4]", "value": 0.512, "unit": "µM"}]}
{"compound": "Cc1ccc(S(=O)(=O)N[C@H](C(=O)N2C[C@H]3[C@@H]([C@H]2C(=O)NC(C#N)c2cncc(C(F)(F)F)c2)C3(C)C)C(C)(C)C)cc1", "note": "(stereo partly drawn) [GDI-016, (1R,2S,5S)-N-(cyano(5-(trifluoromethyl)pyridin-3-yl)methyl)-3-((S)-3,3-dimethyl-2-((4-methylphenyl)sulfonamido)butanoyl)-6,6-dimet hyl-3-azabicyclo[3.1.0]hexane-2-carboxamide]", "values": [{"measurement": "IC50", "setting": "[1]", "value": 0.031, "unit": "µM"}, {"measurement": "CC50 at 48 h", "setting": "[2]", "value": "> 39.2", "unit": "µM"}, {"measurement": "EC50", "setting": "SARS-CoV-2; [4]", "value": 0.032, "unit": "µM"}]}
{"compound": "CC(=O)N[C@H](C(=O)N1C[C@H]2[C@@H]([C@H]1C(=O)NC(C#N)c1cncc3ccccc13)C2(C)C)C(C)(C)C", "note": "(stereo partly drawn) [GDI-006, (1R,2S,5S)-3-((S)-2-acetamido-3,3-dimethylbutyryl)-N-(cyano(isoquinolin-4-yl)methyl)-6,6-dimethyl-3-azabicyclo[3.1.0]hexane-2-carboxamide]", "values": [{"measurement": "IC50", "setting": "[1]", "value": 0.028, "unit": "µM"}, {"measurement": "CC50 at 48 h", "setting": "[2]", "value": "> 39.8", "unit": "µM"}, {"measurement": "EC50", "setting": "SARS-CoV-2; [4]", "value": 0.028, "unit": "µM"}, {"measurement": "AUC(0-inf)", "setting": "[3]", "value": 1.7, "unit": "µg·h/mL"}, {"measurement": "AUC(0-t)", "setting": "[3]", "value": 1.69, "unit": "µg·h/mL"}, {"measurement": "Cmax", "setting": "[3]", "value": 2.17, "unit": "µg/mL"}, {"measurement": "half-life", "setting": "[3]", "value": 0.875, "unit": "h"}]}
{"compound": "(1R,2S,5S)-N-(cyano(5-(3-methyl-1,2,4-oxadiazol-5-yl)pyridin-3-yl)methyl)-3-(S)-3,3-dimethyl-2-(2,2,2-trifluoroacetylamino) butyryl)- 6,6-dimethyl-3-azabicyclo[3.1.0]hexane-2-carboxamide [GDI-017]", "values": [{"measurement": "IC50", "setting": "[1]", "value": 0.046, "unit": "µM"}, {"measurement": "CC50", "setting": "Hela-ACE cells", "value": "> 39.8", "unit": "µM"}, {"measurement": "EC50", "setting": "SARS-CoV-2; Hela-ACE cells infected with SARS-CoV-2 (USA-WA1/2020), 48 hours", "value": 0.66, "unit": "µM"}]}
{"compound": "CC(=O)N[C@H](C(=O)N1C[C@H]2[C@@H]([C@H]1C(=O)NC(C#N)c1cncc(C#N)c1)C2(C)C)C(C)(C)C", "note": "(stereo partly drawn) [GDI-010, (1R,2S,5S)-3-((S)-2-acetamido-3,3-dimethylbutyryl)-N-(cyano(5-cyanopyridin-3-yl)methyl)-6,6-dimethyl-3-azabicyclo[3.1.0]hexane-2-carboxamide]", "values": [{"measurement": "IC50", "setting": "[1]", "value": 0.33, "unit": "µM"}, {"measurement": "CC50 at 48 h", "setting": "[2]", "value": "> 39.8", "unit": "µM"}, {"measurement": "EC50", "setting": "SARS-CoV-2; [4]", "value": 5.72, "unit": "µM"}]}
{"compound": "CC(=O)N[C@H](C(=O)N1C[C@H]2[C@@H]([C@H]1C(=O)N[C@@H](C#N)c1cncc3ccccc13)C2(C)C)C(C)(C)C", "note": "[GDI-037]", "values": [{"measurement": "IC50", "setting": "[1]", "value": 0.04, "unit": "µM"}, {"measurement": "CC50 at 48 h", "setting": "[2]", "value": "> 39.8", "unit": "µM"}, {"measurement": "EC50", "setting": "SARS-CoV-2; [4]", "value": 0.03, "unit": "µM"}]}
{"compound": "CC(C)(C)[C@H](NC(=O)C(F)(F)F)C(=O)N1C[C@H]2[C@@H]([C@H]1C(=O)NC(C#N)c1cncc(Br)c1)C2(C)C", "note": "(stereo partly drawn) [GDI-011, (1R,2S,5S)-N-((5-bromopyridin-3-yl) (cyano)methyl)-3-((S)-3,3-dimethyl-2-(2,2,2-trifluoroacetylamino)butyryl)-6,6-dimethyl-3-aza bicyclo[3.1.0]hexane-2-carboxamide]", "values": [{"measurement": "IC50", "setting": "[1]", "value": 0.078, "unit": "µM"}, {"measurement": "CC50 at 48 h", "setting": "[2]", "value": "> 39.8", "unit": "µM"}, {"measurement": "EC50", "setting": "SARS-CoV-2; [5]", "value": 0.613, "unit": "µM"}, {"measurement": "AUC(0-inf)", "setting": "[3]", "value": 3.47, "unit": "µg·h/mL"}, {"measurement": "AUC(0-t)", "setting": "[3]", "value": 3.45, "unit": "µg·h/mL"}, {"measurement": "Cmax", "setting": "[3]", "value": 1.87, "unit": "µg/mL"}, {"measurement": "half-life", "setting": "[3]", "value": 1.05, "unit": "h"}]}
{"compound": "CC(=O)N[C@H](C(=O)N1C[C@H]2[C@@H]([C@H]1C(=O)NC(C#N)c1cncc(C)c1)C2(C)C)C(C)(C)C", "note": "(stereo partly drawn) [GDI-005, (1R,2S,5S)-3-((S)-2-acetamido-3,3-dimethylbutyryl)-N-(cyano(5-methylpyridin-3-yl)methyl)-6,6-dimethyl-3-azabicyclo[3.1.0]hex ane-2-carboxamide]", "values": [{"measurement": "IC50", "setting": "[1]", "value": 0.08, "unit": "µM"}, {"measurement": "CC50 at 48 h", "setting": "[2]", "value": "> 39.8", "unit": "µM"}, {"measurement": "EC50", "setting": "SARS-CoV-2; [4]", "value": 0.117, "unit": "µM"}]}
{"compound": "COc1cncc(C(C#N)NC(=O)[C@@H]2[C@@H]3[C@H](CN2C(=O)[C@@H](NC(C)=O)C(C)(C)C)C3(C)C)c1", "note": "(stereo partly drawn) [GDI-008, (1R,2S,5S)-3-((S)-2-acetamido-3,3-dimethylbutyryl)-N-(cyano(5-methoxypyridin-3-yl)methyl)-6,6-dimethyl-3-azabicyclo[3.1.0]he xane-2-carboxamide]", "values": [{"measurement": "IC50", "setting": "[1]", "value": 0.037, "unit": "µM"}, {"measurement": "CC50 at 48 h", "setting": "[2]", "value": "> 39.8", "unit": "µM"}, {"measurement": "EC50", "setting": "SARS-CoV-2; [4]", "value": 0.417, "unit": "µM"}]}
